Assay [1] addresses PIK3CA (human) (UniProt P42336). In words: Inhibition of PIK3CA Kinase Activity.
Assay [2] deals with PIK3CG (human) (UniProt P48736). Kind of assay: Inhibition of PIK3CG Kinase Activity.

A word on the IC50: it is the concentration that gives 50% inhibition.

Chain of PIK3CA (human) (P42336 whole entry, looked up): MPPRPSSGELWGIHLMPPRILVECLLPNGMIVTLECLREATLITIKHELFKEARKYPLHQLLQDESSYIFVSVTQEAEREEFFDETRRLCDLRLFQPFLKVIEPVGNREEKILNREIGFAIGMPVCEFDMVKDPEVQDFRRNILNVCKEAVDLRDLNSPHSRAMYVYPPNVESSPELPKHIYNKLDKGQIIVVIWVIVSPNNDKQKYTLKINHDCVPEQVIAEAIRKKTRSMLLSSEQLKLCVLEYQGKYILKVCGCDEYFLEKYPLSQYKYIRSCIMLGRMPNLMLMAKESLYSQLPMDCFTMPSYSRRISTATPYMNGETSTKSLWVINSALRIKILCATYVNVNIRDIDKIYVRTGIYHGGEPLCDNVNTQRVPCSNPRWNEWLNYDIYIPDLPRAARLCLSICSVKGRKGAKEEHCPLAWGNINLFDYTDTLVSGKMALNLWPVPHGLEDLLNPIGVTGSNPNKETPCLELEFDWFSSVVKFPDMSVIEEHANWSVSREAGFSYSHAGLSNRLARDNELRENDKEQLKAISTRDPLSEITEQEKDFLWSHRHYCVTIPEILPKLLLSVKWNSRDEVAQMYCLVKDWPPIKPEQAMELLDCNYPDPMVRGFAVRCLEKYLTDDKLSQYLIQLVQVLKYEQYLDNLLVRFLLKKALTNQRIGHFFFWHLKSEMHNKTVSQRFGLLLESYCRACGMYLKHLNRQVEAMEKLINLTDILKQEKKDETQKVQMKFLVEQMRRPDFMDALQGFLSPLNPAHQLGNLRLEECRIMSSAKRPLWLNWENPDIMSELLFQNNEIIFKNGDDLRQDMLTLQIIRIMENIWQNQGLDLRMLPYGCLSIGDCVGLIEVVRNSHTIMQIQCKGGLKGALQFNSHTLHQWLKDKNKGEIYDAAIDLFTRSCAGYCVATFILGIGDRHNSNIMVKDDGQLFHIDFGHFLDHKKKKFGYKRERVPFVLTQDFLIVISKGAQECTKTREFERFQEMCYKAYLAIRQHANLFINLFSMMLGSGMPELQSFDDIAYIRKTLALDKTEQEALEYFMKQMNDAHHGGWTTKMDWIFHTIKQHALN
Chain of PIK3CG (human) (P48736 whole entry, looked up): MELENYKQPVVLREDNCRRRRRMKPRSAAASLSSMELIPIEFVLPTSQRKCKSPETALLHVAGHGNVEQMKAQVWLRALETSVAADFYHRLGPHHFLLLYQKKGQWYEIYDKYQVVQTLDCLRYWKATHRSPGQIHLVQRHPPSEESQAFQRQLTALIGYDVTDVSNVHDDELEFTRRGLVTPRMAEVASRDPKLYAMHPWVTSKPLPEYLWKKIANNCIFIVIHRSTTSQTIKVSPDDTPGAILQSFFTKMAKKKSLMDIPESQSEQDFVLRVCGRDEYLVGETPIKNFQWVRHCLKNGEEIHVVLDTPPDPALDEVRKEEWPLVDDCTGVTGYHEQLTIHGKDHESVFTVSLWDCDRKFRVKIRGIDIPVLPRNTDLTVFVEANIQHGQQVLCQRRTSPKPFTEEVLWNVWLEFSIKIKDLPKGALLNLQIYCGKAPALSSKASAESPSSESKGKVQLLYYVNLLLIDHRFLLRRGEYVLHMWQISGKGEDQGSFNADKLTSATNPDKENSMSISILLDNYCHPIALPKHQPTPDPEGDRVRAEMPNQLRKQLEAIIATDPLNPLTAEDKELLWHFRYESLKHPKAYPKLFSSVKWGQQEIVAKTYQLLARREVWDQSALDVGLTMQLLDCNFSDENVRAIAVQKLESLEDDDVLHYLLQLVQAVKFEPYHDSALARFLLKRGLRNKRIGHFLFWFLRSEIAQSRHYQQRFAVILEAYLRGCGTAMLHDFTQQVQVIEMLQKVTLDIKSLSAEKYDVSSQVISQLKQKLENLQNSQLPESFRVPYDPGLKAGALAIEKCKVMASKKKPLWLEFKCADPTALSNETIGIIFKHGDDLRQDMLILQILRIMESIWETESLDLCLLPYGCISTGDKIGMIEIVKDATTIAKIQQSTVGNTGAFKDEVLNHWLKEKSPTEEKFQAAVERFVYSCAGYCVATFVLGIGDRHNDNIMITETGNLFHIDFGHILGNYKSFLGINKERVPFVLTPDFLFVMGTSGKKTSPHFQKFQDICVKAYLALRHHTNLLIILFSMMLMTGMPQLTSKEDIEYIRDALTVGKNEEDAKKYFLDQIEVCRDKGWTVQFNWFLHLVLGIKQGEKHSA

In the case of `Cn1ccc2c3nc(-c4cccc5[nH]ccc45)nc(C4COCCN4)c3ccc21` (stereo not drawn), the IC50 turned out to be 6.31 µM in assay [1] and 4.66 µM in assay [2].

In the case of `Cn1ccc2c3nc(-c4cccc(C(N)=O)c4)nc(N4CCOCC4)c3ccc21`, the results for the IC50 in assay [1] and in assay [2] were 2.56 µM and 7.42 µM, respectively.

Compound `CN(C)CCCNC(=O)Nc1ccc(-c2nc(N3CCOCC3)c3ccc4c(ccn4C)c3n2)cc1` returned an IC50 in assay [2] of 10 µM.

On to `CN1CCN(C(=O)Nc2ccc(-c3nc(N4CCOCC4)c4ccc5c(ccn5C)c4n3)cc2)CC1`, for which the IC50 in assay [2] amounted to 10 µM.

On to `Cn1ccc2c3nc(-c4ccc(N)cc4)nc(N4CCOCC4)c3ccc21`, for which, in assay [2], the IC50 came out at 10 µM.

Regarding `Cn1ccc2c3nc(-c4ccc(C(=O)O)cc4)nc(N4CCOCC4)c3ccc21`, the IC50 is 12 µM in assay [1] and 9.84 µM in assay [2].

For the compound `Cn1ccc2c3nc(-c4cccc(C#N)c4)nc(N4CCOCC4)c3ccc21`, the IC50 came to 4.28 µM in assay [1] and 2.77 µM in assay [2].

As to `CCCNC(=O)Nc1ccc(-c2nc(N3CCOCC3)c3ccc4c(ccn4C)c3n2)cc1`, the figures for the IC50 in assay [1] and in assay [2] were 5.66 µM and 8.4 µM, respectively.
